Some results are limits rather than exact numbers.

One experiment relates to SK-MEL-5. The experiment in a line: NCI-60 single-dose screen. The class given is cell-based. The note with it: Homo sapiens, single dose 10 µM, '-' = no inhibition, read-out: % Growth Inhibition. In a few lines: (§1)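 Compounds tested once at 10 μM across the NCI-60 panel of 60 human cancer cell lines spanning nine tumour types (leukemia, lung, colon, CNS, melanoma, ovarian, renal, prostate, breast), run by the NCI Developmental Therapeutics Program.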
On to `C=CCSc1nc(-c2ccc(Cl)cc2)cc(-c2ccc(OC)c(OC)c2)n1` [Compound 27, 2-(Allylthio)-4-(4-chlorophenyl)-6-(3,4-dimethoxyphenyl)pyrimidine], for which the inhibition at 10 µM came to 12.2%.

A further experiment relates to HOP-62. Nature of the experiment: NCI-60 single-dose screen. The note with it: Homo sapiens, single dose 10 µM, '-' = no inhibition, read-out: % Growth Inhibition. It counts as cell-based. The essentials: as §1
Consider `C=CCSc1nc(-c2ccc(Cl)cc2)cc(-c2ccc(OC)c(OC)c2)n1` [Compound 27, 2-(Allylthio)-4-(4-chlorophenyl)-6-(3,4-dimethoxyphenyl)pyrimidine], for which the inhibition at 10 µM is under 0%.

The next experiment relates to TK-10. The experiment in a line: NCI-60 single-dose screen. The class given is cell-based. The note with it: Homo sapiens, single dose 10 µM, '-' = no inhibition, read-out: % Growth Inhibition. The essentials:
as §1
In the case of `C=CCSc1nc(-c2ccc(Cl)cc2)cc(-c2ccc(OC)c(OC)c2)n1` [Compound 27, 2-(Allylthio)-4-(4-chlorophenyl)-6-(3,4-dimethoxyphenyl)pyrimidine], the inhibition at 10 µM is under 0%.

Another experiment has as its system OVCAR-4. Nature of the experiment: NCI-60 single-dose screen. It counts as cell-based. The note with it: Homo sapiens, single dose 10 µM, '-' = no inhibition, read-out: % Growth Inhibition. The essentials: as §1
With `C=CCSc1nc(-c2ccc(Cl)cc2)cc(-c2ccc(OC)c(OC)c2)n1` [Compound 27, 2-(Allylthio)-4-(4-chlorophenyl)-6-(3,4-dimethoxyphenyl)pyrimidine], the inhibition at 10 µM is 10.3%.

Another experiment concerns A498. The experiment in a line: NCI-60 single-dose screen. It counts as cell-based. The note with it: Homo sapiens, single dose 10 µM, '-' = no inhibition, read-out: % Growth Inhibition. In a few lines:
as §1
With `C=CCSc1nc(-c2ccc(Cl)cc2)cc(-c2ccc(OC)c(OC)c2)n1` [Compound 27, 2-(Allylthio)-4-(4-chlorophenyl)-6-(3,4-dimethoxyphenyl)pyrimidine], the inhibition at 10 µM was under 0%.

In another experiment the test system is CCRF-CEM. Nature of the experiment: NCI-60 single-dose screen. The class given is cell-based. The note with it: Homo sapiens, single dose 10 µM, '-' = no inhibition, read-out: % Growth Inhibition. In a few lines: as §1
As to `C=CCSc1nc(-c2ccc(Cl)cc2)cc(-c2ccc(OC)c(OC)c2)n1` [Compound 27, 2-(Allylthio)-4-(4-chlorophenyl)-6-(3,4-dimethoxyphenyl)pyrimidine], the inhibition at 10 µM amounted to 13.1%.

The next experiment relates to HCC-2998. The experiment in a line: NCI-60 single-dose screen. It counts as cell-based. The note with it: Homo sapiens, single dose 10 µM, '-' = no inhibition, read-out: % Growth Inhibition. The essentials:
as §1
On to `C=CCSc1nc(-c2ccc(Cl)cc2)cc(-c2ccc(OC)c(OC)c2)n1` [Compound 27, 2-(Allylthio)-4-(4-chlorophenyl)-6-(3,4-dimethoxyphenyl)pyrimidine], for which the inhibition at 10 µM is under 0%.

In another experiment the test system is SF-539. Nature of the experiment: NCI-60 single-dose screen. It counts as cell-based. The note with it: Homo sapiens, single dose 10 µM, '-' = no inhibition, read-out: % Growth Inhibition. In a few lines:
as §1
For `C=CCSc1nc(-c2ccc(Cl)cc2)cc(-c2ccc(OC)c(OC)c2)n1` [Compound 27, 2-(Allylthio)-4-(4-chlorophenyl)-6-(3,4-dimethoxyphenyl)pyrimidine], the inhibition at 10 µM is under 0%.

In another experiment the test system is ACHN 1. Nature of the experiment: NCI-60 single-dose screen. It counts as cell-based. The note with it: Homo sapiens, single dose 10 µM, '-' = no inhibition, read-out: % Growth Inhibition. In a few lines:
as §1
For `C=CCSc1nc(-c2ccc(Cl)cc2)cc(-c2ccc(OC)c(OC)c2)n1` [Compound 27, 2-(Allylthio)-4-(4-chlorophenyl)-6-(3,4-dimethoxyphenyl)pyrimidine], the inhibition at 10 µM is 6.5%.

A further experiment concerns T-47D. The experiment in a line: NCI-60 single-dose screen. The note with it: Homo sapiens, T47D, single dose 10 µM, '-' = no inhibition, read-out: % Growth Inhibition. It counts as cell-based. The essentials: as §1
In the case of `C=CCSc1nc(-c2ccc(Cl)cc2)cc(-c2ccc(OC)c(OC)c2)n1` [Compound 27, 2-(Allylthio)-4-(4-chlorophenyl)-6-(3,4-dimethoxyphenyl)pyrimidine], the inhibition at 10 µM amounted to 23.1%.

The next experiment deals with K-562. The experiment in a line: NCI-60 single-dose screen. The class given is cell-based. The note with it: Homo sapiens, K562, single dose 10 µM, '-' = no inhibition, read-out: % Growth Inhibition. The essentials:
as §1
For the compound `C=CCSc1nc(-c2ccc(Cl)cc2)cc(-c2ccc(OC)c(OC)c2)n1` [Compound 27, 2-(Allylthio)-4-(4-chlorophenyl)-6-(3,4-dimethoxyphenyl)pyrimidine], the inhibition at 10 µM came out at 42%.

In a further experiment the test system is NCI-H460. Nature of the experiment: NCI-60 single-dose screen. It counts as cell-based. The note with it: Homo sapiens, single dose 10 µM, '-' = no inhibition, read-out: % Growth Inhibition. In a few lines: as §1
Take `C=CCSc1nc(-c2ccc(Cl)cc2)cc(-c2ccc(OC)c(OC)c2)n1` [Compound 27, 2-(Allylthio)-4-(4-chlorophenyl)-6-(3,4-dimethoxyphenyl)pyrimidine]: the inhibition at 10 µM was 6.7%.

Another experiment relates to HT29. Nature of the experiment: NCI-60 single-dose screen. The note with it: Homo sapiens, HT-29, single dose 10 µM, '-' = no inhibition, read-out: % Growth Inhibition. The class given is cell-based. The essentials: as §1
Regarding `C=CCSc1nc(-c2ccc(Cl)cc2)cc(-c2ccc(OC)c(OC)c2)n1` [Compound 27, 2-(Allylthio)-4-(4-chlorophenyl)-6-(3,4-dimethoxyphenyl)pyrimidine], the inhibition at 10 µM stood at 22.6%.

Another experiment has as its system MCF7. The experiment in a line: NCI-60 single-dose screen. The note with it: Homo sapiens, single dose 10 µM, '-' = no inhibition, read-out: % Growth Inhibition. It counts as cell-based. The essentials:
as §1
Consider `C=CCSc1nc(-c2ccc(Cl)cc2)cc(-c2ccc(OC)c(OC)c2)n1` [Compound 27, 2-(Allylthio)-4-(4-chlorophenyl)-6-(3,4-dimethoxyphenyl)pyrimidine], for which the inhibition at 10 µM was found to be 17.9%.

The subject of the next experiment is BT-549. The experiment in a line: NCI-60 single-dose screen. It counts as cell-based. The note with it: Homo sapiens, single dose 10 µM, '-' = no inhibition, read-out: % Growth Inhibition. In a few lines:
as §1
Consider `C=CCSc1nc(-c2ccc(Cl)cc2)cc(-c2ccc(OC)c(OC)c2)n1` [Compound 27, 2-(Allylthio)-4-(4-chlorophenyl)-6-(3,4-dimethoxyphenyl)pyrimidine], for which the inhibition at 10 µM was found to be 3.91%.

In another experiment the test system is COLO 205. Nature of the experiment: NCI-60 single-dose screen. The class given is cell-based. The note with it: Homo sapiens, single dose 10 µM, '-' = no inhibition, read-out: % Growth Inhibition. In a few lines: as §1
Consider `C=CCSc1nc(-c2ccc(Cl)cc2)cc(-c2ccc(OC)c(OC)c2)n1` [Compound 27, 2-(Allylthio)-4-(4-chlorophenyl)-6-(3,4-dimethoxyphenyl)pyrimidine], for which the inhibition at 10 µM was under 0%.

The subject of the next experiment is U251. Nature of the experiment: NCI-60 single-dose screen. It counts as cell-based. The note with it: Homo sapiens, U-251, single dose 10 µM, '-' = no inhibition, read-out: % Growth Inhibition. The essentials:
as §1
Consider `C=CCSc1nc(-c2ccc(Cl)cc2)cc(-c2ccc(OC)c(OC)c2)n1` [Compound 27, 2-(Allylthio)-4-(4-chlorophenyl)-6-(3,4-dimethoxyphenyl)pyrimidine], for which the inhibition at 10 µM was under 0%.

The test system of a further experiment is MALME-3M. Nature of the experiment: NCI-60 single-dose screen. It counts as cell-based. The note with it: Homo sapiens, single dose 10 µM, '-' = no inhibition, read-out: % Growth Inhibition. In a few lines:
as §1
Consider `C=CCSc1nc(-c2ccc(Cl)cc2)cc(-c2ccc(OC)c(OC)c2)n1` [Compound 27, 2-(Allylthio)-4-(4-chlorophenyl)-6-(3,4-dimethoxyphenyl)pyrimidine], for which the inhibition at 10 µM is under 0%.

A further experiment relates to NCI-H522. The experiment in a line: NCI-60 single-dose screen. The class given is cell-based. The note with it: Homo sapiens, single dose 10 µM, '-' = no inhibition, read-out: % Growth Inhibition. The essentials: as §1
Turning to `C=CCSc1nc(-c2ccc(Cl)cc2)cc(-c2ccc(OC)c(OC)c2)n1` [Compound 27, 2-(Allylthio)-4-(4-chlorophenyl)-6-(3,4-dimethoxyphenyl)pyrimidine], the inhibition at 10 µM was 16.4%.

The test system of another experiment is RXF 393. The experiment in a line: NCI-60 single-dose screen. The note with it: Homo sapiens, single dose 10 µM, '-' = no inhibition, read-out: % Growth Inhibition. It counts as cell-based. In a few lines:
as §1
For the compound `C=CCSc1nc(-c2ccc(Cl)cc2)cc(-c2ccc(OC)c(OC)c2)n1` [Compound 27, 2-(Allylthio)-4-(4-chlorophenyl)-6-(3,4-dimethoxyphenyl)pyrimidine], the inhibition at 10 µM came out at 3.07%.

Another experiment deals with SK-MEL-28. Nature of the experiment: NCI-60 single-dose screen. It counts as cell-based. The note with it: Homo sapiens, single dose 10 µM, '-' = no inhibition, read-out: % Growth Inhibition. In a few lines:
as §1
`C=CCSc1nc(-c2ccc(Cl)cc2)cc(-c2ccc(OC)c(OC)c2)n1` [Compound 27, 2-(Allylthio)-4-(4-chlorophenyl)-6-(3,4-dimethoxyphenyl)pyrimidine]: the inhibition at 10 µM is under 0%.

Another experiment has as its system LOX IMVI. The experiment in a line: NCI-60 single-dose screen. The note with it: Homo sapiens, single dose 10 µM, '-' = no inhibition, read-out: % Growth Inhibition. The class given is cell-based. In a few lines:
as §1
Consider `C=CCSc1nc(-c2ccc(Cl)cc2)cc(-c2ccc(OC)c(OC)c2)n1` [Compound 27, 2-(Allylthio)-4-(4-chlorophenyl)-6-(3,4-dimethoxyphenyl)pyrimidine], for which the inhibition at 10 µM stood at 7.11%.

A further experiment has as its system MDA-MB-468. Nature of the experiment: NCI-60 single-dose screen. The class given is cell-based. The note with it: Homo sapiens, single dose 10 µM, '-' = no inhibition, read-out: % Growth Inhibition. The essentials:
as §1
For the compound `C=CCSc1nc(-c2ccc(Cl)cc2)cc(-c2ccc(OC)c(OC)c2)n1` [Compound 27, 2-(Allylthio)-4-(4-chlorophenyl)-6-(3,4-dimethoxyphenyl)pyrimidine], the inhibition at 10 µM stood at 23.7%.

In general, inhibition refers to the percentage by which the read-out fell short of the control.

Values taken from paper PMC11576293, “New series of 4,6-diaryl pyrimidines: facile synthesis and antiproliferative activity as dual EGFR/VEGFR-2 inhibitors” (Frontiers in Chemistry, 2024).
